Data published in PMC6271642, “New Derivatives of 3,4-Dihydroisoquinoline-3-carboxylic Acid with Free-Radical Scavenging, D-Amino Acid Oxidase, Acetylcholinesterase and Butyrylcholinesterase Inhibitory Activity” (Molecules, 2014).

How the values were obtained:
[1] = molecular target: acetylcholinesterase from Electrophorus electricus (AChE) (Electrophorus electricus, UniProt O42275); assay: biochemical
[2] = molecular target: T1, D-Amino acid oxidase from porcine kidney (DAAO) (Sus scrofa, UniProt P00371); assay: colorimetric, […],4-dinitrophenylhydrazine detection of keto acid; type: biochemical; settings: read-out: DAAO Inhibition [IC50] ^c/[%] ^d
T1 construct: gene DAO; native enzyme from porcine kidney, Sigma-Aldrich
T1 sequence (P00371 whole entry): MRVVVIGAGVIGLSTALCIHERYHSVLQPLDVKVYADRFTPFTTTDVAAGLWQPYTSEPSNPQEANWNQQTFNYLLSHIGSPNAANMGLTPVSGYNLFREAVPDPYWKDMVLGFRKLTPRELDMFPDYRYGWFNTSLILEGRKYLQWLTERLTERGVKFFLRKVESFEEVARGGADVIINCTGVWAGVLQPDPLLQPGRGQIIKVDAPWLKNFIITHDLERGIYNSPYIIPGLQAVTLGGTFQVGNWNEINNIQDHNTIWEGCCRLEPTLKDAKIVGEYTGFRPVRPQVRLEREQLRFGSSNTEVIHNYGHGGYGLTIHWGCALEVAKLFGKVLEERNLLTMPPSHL

[3] = molecular target: T2, butyrylcholinesterase from equine serum (BuChE) (Equus caballus, UniProt P81908); assay: biochemical
T2 construct: gene BCHE
T2 sequence (P81908 whole entry): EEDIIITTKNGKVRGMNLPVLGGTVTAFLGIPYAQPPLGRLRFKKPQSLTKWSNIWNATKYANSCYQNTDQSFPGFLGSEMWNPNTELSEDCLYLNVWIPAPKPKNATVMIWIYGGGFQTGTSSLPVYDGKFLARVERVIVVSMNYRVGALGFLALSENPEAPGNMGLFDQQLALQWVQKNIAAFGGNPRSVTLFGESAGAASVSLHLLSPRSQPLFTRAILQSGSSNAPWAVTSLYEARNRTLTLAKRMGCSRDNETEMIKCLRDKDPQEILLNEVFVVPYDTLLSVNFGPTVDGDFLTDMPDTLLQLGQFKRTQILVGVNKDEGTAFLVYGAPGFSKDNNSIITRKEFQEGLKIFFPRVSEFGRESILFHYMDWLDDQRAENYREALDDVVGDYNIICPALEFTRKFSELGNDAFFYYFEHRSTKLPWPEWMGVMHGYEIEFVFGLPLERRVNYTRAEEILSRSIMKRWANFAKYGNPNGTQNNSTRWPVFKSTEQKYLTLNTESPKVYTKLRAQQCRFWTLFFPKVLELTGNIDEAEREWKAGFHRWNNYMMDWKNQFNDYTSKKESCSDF

[4] = molecular target: T1, D-Amino acid oxidase from porcine kidney (DAAO); assay: colorimetric, […],4-dinitrophenylhydrazine detection of keto acid; type: biochemical; settings: D-Ala substrate, 0.2 M Tris-HCl pH 8.2, 37 °C, 30 min

Sequence of acetylcholinesterase from Electrophorus electricus (AChE) (O42275 24-633): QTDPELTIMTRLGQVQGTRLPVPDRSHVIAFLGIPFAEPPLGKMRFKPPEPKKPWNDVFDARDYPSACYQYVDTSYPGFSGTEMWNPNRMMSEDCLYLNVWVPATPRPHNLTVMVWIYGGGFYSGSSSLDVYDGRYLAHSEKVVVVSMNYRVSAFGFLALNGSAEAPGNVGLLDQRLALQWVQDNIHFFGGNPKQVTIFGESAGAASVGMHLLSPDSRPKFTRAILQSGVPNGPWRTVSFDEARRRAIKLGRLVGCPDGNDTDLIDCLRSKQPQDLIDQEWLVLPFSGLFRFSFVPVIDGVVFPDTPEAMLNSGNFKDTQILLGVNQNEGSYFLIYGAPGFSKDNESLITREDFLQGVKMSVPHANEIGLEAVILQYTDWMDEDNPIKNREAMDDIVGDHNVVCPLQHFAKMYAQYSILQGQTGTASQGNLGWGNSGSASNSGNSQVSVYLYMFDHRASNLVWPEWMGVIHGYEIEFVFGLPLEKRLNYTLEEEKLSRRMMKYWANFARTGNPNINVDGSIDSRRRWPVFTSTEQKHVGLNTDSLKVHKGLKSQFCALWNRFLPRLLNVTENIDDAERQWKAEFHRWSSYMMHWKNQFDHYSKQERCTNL

## O=C(O)C1Cc2cc(O)c(O)c(Cl)c2C=N1 (racemic) [5h, 8-Chloro-6,7-dihydroxy-3,4-dihydroisoquinolin-3-carboxylic acid]
[1]
  IC50: 820 µM
[2]
  IC50: 1.74 mM

## O=C(O)C1Cc2c(cc(O)c(O)c2Cl)C=N1 (racemic) [5l, 5-Chloro-6,7-dihydroxy-3,4-dihydroisoquinolin-3-carboxylic acid]
[2]
  IC50: 1.29 mM
[3]
  IC50: 170 µM

## O=C(O)C1Cc2cc(O)c(Br)c(O)c2C=N1 (racemic) [5j, 7-Bromo-6,8-dihydroxy-3,4-dihydroisoquinolin-3-carboxylic acid]
[1]
  IC50: 470 µM
[4]; 3570 µM, 3.57 mM compound
  DAAO Inhibition [IC50] ^c/[%] ^d: 11.50%
[3]
  IC50: 640 µM

## O=C(O)c1ccccc1 [Benzoic acid, reference compound]
[2]
  IC50: 2.28 mM

## O=C(O)C1Cc2c(Br)ccc(O)c2C=N1 (racemic) [5a, 5-Bromo-8-hydroxy-3,4-dihydroisoquinolin-3-carboxylic acid]
[4]; unreliable (above the highest final concentration of about 3.57 mM, extrapolated)
  DAAO Inhibition [IC50] ^c/[%] ^d: 8.46 mM

## O=C(O)C1Cc2c(O)c(O)cc(Br)c2C=N1 (racemic) [5f, 8-Bromo-5,6-dihydroxy-3,4-dihydroisoquinolin-3-carboxylic acid]
[1]
  IC50: 540 µM
[2]
  IC50: 2.06 mM

## O=C(O)C1Cc2ccc(Br)c(O)c2C=N1 (racemic) [5b, 7-Bromo-8-hydroxy-3,4-dihydroisoquinolin-3-carboxylic acid]
[4]; 3570 µM, 3.57 mM compound
  DAAO Inhibition [IC50] ^c/[%] ^d: 13.88%

## CC1(C(=O)O)Cc2cc(O)c(O)cc2C2C(Cl)C(=O)N21 (stereo not shown) [compound 15, 1-Chloro-7,8-dihydroxy-4-methyl-2-oxo-1,4,5,9b-tetrahydro-2H-azeto[2,1-a]-isoquinoline-4-carboxylic Acid]
[2]
  IC50: 2.02 mM
[3]
  IC50: 1750 µM

## O=C(O)C1Cc2cc(O)c(O)cc2C=N1 (racemic) [5e, 6,7-Dihydroxy-3,4-dihydroisoquinolin-3-carboxylic acid]
[1]
  IC50: 560 µM
[4]; 3570 µM, 3.57 mM compound
  DAAO Inhibition [IC50] ^c/[%] ^d: 7.52%
[3]
  IC50: 370 µM

## O=C(O)C1Cc2cc(O)c(O)c(I)c2C=N1 (racemic) [5d, 6,7-Dihydroxy-8-iodo-3,4-dihydroisoquinolin-3-carboxylic acid]
[2]
  IC50: 3.35 mM

## O=C(O)C1Cc2cc(O)cc(O)c2C=N1 (racemic) [5c, 6,8-Dihydroxy-3,4-dihydroisoquinolin-3-carboxylic acid]
[2]
  IC50: 1.66 mM

## O=C(O)C1Cc2cc(O)c(O)c(Br)c2C=N1 (racemic) [5g, 8-Bromo-6,7-dihydroxy-3,4-dihydroisoquinolin-3-carboxylic acid]
[2]
  IC50: 2 mM

## C[C@@]1(C(=O)O)Cc2cc(O)c(O)cc2C=N1 [compound 13, (S)-6,7-Dihydroxy-3-methyl-3,4-dihydroisoquinolin-3-carboxylic Acid]
[1]
  IC50: 1780 µM
[4]; 3570 µM, 3.57 mM compound
  DAAO Inhibition [IC50] ^c/[%] ^d: 7.89%
[3]
  IC50: 620 µM

## O=C(O)C1CCc2cc(O)c(O)cc2C=N1 (racemic) [compound 9, 7,8-Dihydroxy-4,5-dihydro-3H-2-benzazepine-3-carboxylic Acid]
[1]
  IC50: 2080 µM
[2]
  IC50: 0.55 mM

## O=C(O)C1Cc2c(Cl)c(O)cc(O)c2C=N1 (racemic) [5k, 5-Chloro-6,8-dihydroxy-3,4-dihydroisoquinolin-3-carboxylic acid]
[1]
  IC50: 590 µM
[4]; 3570 µM, 3.57 mM compound
  DAAO Inhibition [IC50] ^c/[%] ^d: 7.27%
[3]
  IC50: 1420 µM
